Several values for one entry are separate records, joined by “and”; a condition that tells them apart may be missing. Equal values may be shown once.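 Cultured in 96-well plates, cells were exposed to test compound for 48 hours across five concentrations. GI50: concentration for 50% inhibition of growth. TGI marks complete inhibition of growth.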
Legend:
Assay in all cases: NCI anticancer screen, dose series, 48 h
[1] = tested on: MALME-3M melanoma
[2] = tested on: OVCAR-5 ovarian
[3] = tested on: HT29 colon
[4] = tested on: HCT-15 colon
[5] = tested on: NCI-H460 lung
[6] = tested on: SK-OV-3 ovarian
[7] = tested on: HOP-62 NSCLC
[8] = tested on: A498 renal
[9] = tested on: TK-10 renal
[10] = tested on: BT-549 breast

SMILES: COC1=CC(=O)C2C(C1=O)[C@@H]1c3ccccc3OC(C)(C)[C@H]21 (some centres not stated)
- TGI [1]: 34 µM
- TGI [2]: > 100 µM
- TGI [3]: 99.4 µM
- TGI [4]: 36.2 µM
- TGI [5]: > 100 µM
- TGI [6]: > 100 µM
- TGI [7]: > 100 µM
- TGI [8]: > 100 µM
- TGI [9]: 38.6 µM

SMILES: COc1cccc2c1C(=O)c1c(O)c3c(c(O)c1C2=O)C[C@@](O)(C(C)=O)C[C@@H]3OC1CC([N+]([O-])(Cc2ccccc2)Cc2ccccc2)C(O)C(C)O1 (some centres not stated)
- TGI [2]: 3.22 µM
- TGI [3]: 3.14 µM
- TGI [4]: 2.76 µM
- TGI [5]: 2.39 µM
- TGI [6]: 17.2 µM
- TGI [7]: 2.98 µM
- TGI [8]: 8.53 µM
- TGI [9]: 3.37 µM

SMILES: CC(C)(CN1CCOCC1)C(=O)/C=C/c1ccc(/C=C/C(=O)C(C)(C)CN2CCOCC2)cc1
- TGI [2]: 3.26 µM
- TGI [3]: 1.88 µM
- TGI [4]: 4.03 µM
- TGI [5]: 19.4 µM
- TGI [6]: 39.8 µM
- TGI [7]: 4.79 µM
- TGI [8]: 3.6 µM
- TGI [9]: 3.62 µM

SMILES: S=c1nc(C(c2ccccc2)c2ccccc2)[nH][nH]1
- TGI [1]: > 100 µM
- TGI [2]: > 100 µM
- TGI [3]: > 100 µM
- TGI [4]: > 100 µM
- TGI [5]: > 100 µM
- TGI [6]: > 100 µM
- TGI [7]: > 100 µM
- TGI [8]: > 100 µM
- TGI [9]: > 100 µM

SMILES: Cn1cnc([N+](=O)[O-])c1Sc1nnnn1C
- TGI [1]: 26.9 µM
- TGI [2]: 45.2 µM
- TGI [3]: 40.5 µM
- TGI [5]: > 100 µM
- TGI [6]: > 100 µM
- TGI [7]: > 100 µM
- TGI [8]: > 100 µM
- TGI [9]: 31.4 µM

SMILES: CCC[CH2][Sn]([CH2]CCC)([CH2]CCC)[O]C(=O)C(OC(C)=O)c1ccccc1 (configuration not stated)
- GI50 [1]: 0.143 µM
- TGI [1]: 0.274 µM
- GI50 [2]: 0.086 µM
- TGI [2]: 0.222 µM
- GI50 [3]: 0.127 µM
- TGI [3]: 0.26 µM
- GI50 [4]: 0.144 µM
- TGI [4]: 0.28 µM
- GI50 [5]: 0.138 µM
- TGI [5]: 0.28 µM
- GI50 [6]: 0.12 µM
- TGI [6]: 0.273 µM
- GI50 [7]: 0.149 µM
- TGI [7]: 0.287 µM
- GI50 [8]: 0.154 µM
- TGI [8]: 0.305 µM
- GI50 [9]: 0.244 µM
- TGI [9]: 0.888 µM

SMILES: CC(N)Cc1ccc(Cl)cc1 (configuration not stated)
- TGI [1]: > 100 µM
- TGI [2]: > 100 µM
- TGI [3]: > 100 µM
- TGI [4]: > 100 µM
- TGI [5]: > 100 µM
- TGI [6]: > 100 µM
- TGI [7]: > 100 µM
- TGI [8]: > 100 µM
- TGI [9]: > 100 µM

SMILES: O=c1/c(=C/c2c(O)ccc3ccccc23)sc2nc3ccccc3n12
- TGI [1]: > 100 µM
- TGI [2]: > 100 µM
- TGI [3]: > 100 µM
- TGI [4]: > 100 µM
- TGI [5]: > 100 µM
- TGI [6]: > 100 µM
- TGI [7]: > 100 µM
- TGI [8]: > 100 µM
- TGI [9]: > 100 µM

SMILES: O=C1CSC(c2ccc(-c3nc4ccccc4[nH]3)cc2)=N1
- GI50 [10]: 42.4 µM
- TGI [10]: > 50 µM
- GI50 [2]: > 50 µM
- TGI [2]: > 50 µM
- GI50 [4]: 16.7 µM
- TGI [4]: > 50 µM
- GI50 [5]: 3.27 µM
- TGI [5]: > 50 µM
- GI50 [6]: > 50 µM
- TGI [6]: > 50 µM
- GI50 [7]: > 50 µM
- TGI [7]: > 50 µM
- GI50 [9]: > 50 µM
- TGI [9]: > 50 µM

SMILES: COC1CC(C)C(OC)c2cc(O)cc(c2O)NC(=O)/C(C)=C/C=C\C(C)C(OC(N)=O)/C(C)=C\C(C)C1OC (configuration not stated)
- GI50 [1]: 0.749 µM and 0.503 µM
- TGI [1]: 4.89 µM and 7.39 µM
- GI50 [2]: 0.549 µM
- TGI [2]: 20.5 µM and 11 µM
- GI50 [3]: 0.0526 µM and 0.116 µM
- TGI [3]: 12.2 µM and 10.3 µM
- GI50 [4]: 4.91 µM
- TGI [4]: 11.9 µM and 12.7 µM
- GI50 [5]: 0.348 µM and 0.42 µM
- TGI [5]: 18.4 µM and 8.56 µM
- GI50 [6]: 0.171 µM
- TGI [6]: 8.02 µM and 14.7 µM
- GI50 [7]: 0.413 µM
- TGI [7]: 36.9 µM and 12.2 µM
- GI50 [8]: 18.4 µM
- TGI [8]: 38.1 µM and 14.8 µM
- GI50 [9]: 2.92 µM
- TGI [9]: 21.1 µM and 10.6 µM

SMILES: COc1cc(O)c(C(=O)CC(C)=O)c(OC)c1
- TGI [1]: > 100 µM
- TGI [2]: > 100 µM
- TGI [3]: > 100 µM
- TGI [5]: > 100 µM
- TGI [6]: > 100 µM
- TGI [7]: > 100 µM
- TGI [9]: > 100 µM

SMILES: COc1ccc2c3c(c(C(=O)O)oc13)CCC2
- TGI [1]: > 100 µM
- TGI [2]: > 100 µM
- TGI [3]: > 100 µM
- TGI [4]: > 100 µM
- TGI [5]: > 100 µM
- TGI [6]: > 100 µM
- TGI [7]: > 100 µM
- TGI [9]: > 100 µM

SMILES: NCCOCn1cc(Cc2cccc(OCc3ccccc3)c2)c(=O)[nH]c1=O
- TGI [3]: > 100 µM
- TGI [4]: > 100 µM
- TGI [5]: > 100 µM
- TGI [6]: > 100 µM
- TGI [9]: > 100 µM

SMILES: O=C1Nc2ccccc2/C1=C\c1cccc(/C=C2/C(=O)Nc3ccccc32)n1
- GI50 [1]: 0.3 µM
- TGI [1]: 1.08 µM
- GI50 [2]: 0.888 µM
- TGI [2]: 2.4 µM
- GI50 [3]: 0.226 µM
- TGI [3]: 0.529 µM
- GI50 [4]: 0.219 µM
- TGI [4]: 0.618 µM
- GI50 [5]: 0.669 µM
- TGI [5]: 1.85 µM
- GI50 [6]: 1.21 µM
- TGI [6]: 2.76 µM
- GI50 [7]: 1.96 µM
- TGI [7]: 3.92 µM
- GI50 [8]: 1.5 µM
- TGI [8]: 2.9 µM
- GI50 [9]: 0.416 µM
- TGI [9]: 1.41 µM

SMILES: Cc1ccc(NC(=O)C(=O)C(C(=O)c2ccc3ccccc3c2)C2OC(=O)c3ccccc32)c(C)c1 (configuration not stated)
- TGI [1]: 22.4 µM
- TGI [2]: 36.5 µM
- TGI [3]: 57.6 µM
- TGI [4]: 40.2 µM
- TGI [5]: 25.5 µM
- TGI [6]: 60.4 µM
- TGI [7]: 22.4 µM
- TGI [8]: 20 µM
- TGI [9]: 42.9 µM

Reference: PubChem BioAssay (NCI)
